# Data from US20230279025A1, “KRAS G12D INHIBITORS” (Mirati Therapeutics, Inc., priority 2020, published 2023).
# Molecular target: KRas G12D (Homo sapiens (Human), UniProt P01116, G12D)
# Assay: KRas G12D Binding Assay (TR-FRET displacement of Cy5 labelled tracer)
# Details: GDP-loaded KRAS G12D (amino acids 1:169), 60 minute incubation at 22° C.
# Experimental: After a 60 minute incubation at 22° C., the reaction was measured using a PerkinElmer EnVision multimode plate reader via TR-FRET dual wavelength detection, and the percent of control (POC) calculated using a ratiometric emission factor. […] The POC values were fit to a 4-parameter logistic curve and the IC50 value was determined as the concentration where the curve crosses 50 POC.
# ND stands for “not determined.”
# Sequence of KRas G12D (P01116 other isoform, or with tags, fused parts or gaps G12D): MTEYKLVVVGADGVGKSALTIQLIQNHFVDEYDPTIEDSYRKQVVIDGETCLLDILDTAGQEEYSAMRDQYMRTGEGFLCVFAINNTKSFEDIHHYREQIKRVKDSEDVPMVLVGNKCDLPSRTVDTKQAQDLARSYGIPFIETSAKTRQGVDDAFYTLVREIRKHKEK
row,Structure (SMILES),IC50 [nM]
1,"CN1C[C@H](OC(=O)NCCOCc2ccc(O)cc2)C[C@H]1COc1nc(N2C[C@H]3CC[C@@H](C2)N3)c2cnc(-c3cccc4cccc(Cl)c34)c(F)c2n1 [Example 260, (3R,5S)-5-(((4-((1R,5S)-3,8-diazabicyclo[3.2.1]octan-3-yl)-7-(8-chloronaphthalen-1-yl)-8-fluoropyrido[4,3-d]pyrimidin-2-yl)oxy)methyl)-1-methylpyrrolidin-3-yl (2-((4-hydroxybenzyl)oxy)ethyl)carbamate]",107
2,"CNC(C)COc1nc(N2CC3CCC(C2)N3)c2cnc(-c3cccc4cccc(Cl)c34)c(F)c2n1 (stereo not drawn) [Example 363, bis(2,2,2-trifluoroacetate)]",3930
3,"CC(C)c1ccccc1-c1ncc2c(N3CC4CCC(C3)N4)nc(OCC34CCCN3C[C@H](F)C4)nc2c1F (stereo partly drawn) [Example 348, 4-((1R,5S)-3,8-diazabicyclo[3.2.1]octan-3-yl)-8-fluoro-2-((2-fluorotetrahydro-1H-pyrrolizin-7a(5H)-yl)methoxy)-7-(2-isopropylphenyl)pyrido[4,3-d]pyrimidine]",15.5
4,"Fc1c(-c2c(C(F)(F)F)ccc3[nH]ncc23)ncc2c(N3C[C@H]4CC[C@@H](C3)N4)nc(OCC34CCCN3CCC4)nc12 [Example 344, 4-((1R,5S)-3,8-diazabicyclo[3.2.1]octan-3-yl)-8-fluoro-2-((tetrahydro-1H-pyrrolizin-7a(5H)-yl)methoxy)-7-(5-(trifluoromethyl)-1H-indazol-4-yl)pyrido[4,3-d]pyrimidine]",10.9
5,"NC(=O)Cc1cccc2cccc(-c3ncc4c(N5C[C@H]6CC[C@@H](C5)N6)nc(OCC56CCCN5CCC6)nc4c3F)c12 [Example 240, 2-(8-(4-((1R,5S)-3,8-diazabicyclo[3.2.1]octan-3-yl)-8-fluoro-2-((tetrahydro-1H-pyrrolizin-7a(5H)-yl)methoxy)pyrido[4,3-d]pyrimidin-7-yl)naphthalen-1-yl)acetamide]",315
6,"Oc1cccc2cccc(-c3ncc4c(N5C[C@H]6CC[C@@H](C5)N6)nc(OCC56CCCN5CCC6)nc4c3F)c12 [Example 237, 8-(4-((1R,5S)-3,8-diazabicyclo[3.2.1]octan-3-yl)-8-fluoro-2-((tetrahydro-1H-pyrrolizin-7a(5H)-yl)methoxy)pyrido[4,3-d]pyrimidin-7-yl)naphthalen-1-ol]",500
7,"Oc1ccccc1-c1ncc2c(N3C[C@H]4CC[C@@H](C3)N4)nc(OCC34CCCN3CCC4)nc2c1F [Example 267, 2-(4-((1R,5S)-3,8-diazabicyclo[3.2.1]octan-3-yl)-8-fluoro-2-((hexahydro-1H-pyrrolizin-7a-yl)methoxy)pyrido[4,3-d]pyrimidin-7-yl)phenol]",3260
8,"C[C@H]1C[C@@H]1c1ccccc1-c1ncc2c(N3C[C@H]4CC[C@@H](C3)N4)nc(OCC34CCCN3CCC4)nc2c1F [Example 289, 4-((1R,5S)-3,8-diazabicyclo[3.2.1]octan-3-yl)-8-fluoro-2-((hexahydro-1H-pyrrolizin-7a-yl)methoxy)-7-(2-((1S,2S)-2-methylcyclopropyl)phenyl)pyrido[4,3-d]pyrimidine]",218
9,"Fc1c(-c2ccccc2OC(F)F)ncc2c(N3C[C@H]4CC[C@@H](C3)N4)nc(OCC34CCCN3CCC4)nc12 [Example 303, 4-((1R,5S)-3,8-diazabicyclo[3.2.1]octan-3-yl)-7-(2-(difluoromethoxy)phenyl)-8-fluoro-2-((hexahydro-1H-pyrrolizin-7a-yl)methoxy)pyrido[4,3-d]pyrimidine]",357
10,"COC(c1ccc(O)cc1-c1ncc2c(N3CC4CCC(C3)N4)nc(OC[C@@]34CCCN3C[C@H](F)C4)nc2c1F)C(F)(F)F (stereo in doubt) [Example 390, 3-(4-((1R,5S)-3,8-diazabicyclo[3.2.1]octan-3-yl)-8-fluoro-2-((2-fluorotetrahydro-1H-pyrrolizin-7a(5H)-yl)methoxy)pyrido[4,3-d]pyrimidin-7-yl)-4-(2,2,2-trifluoro-1-methoxyethyl)phenol]",36.8
11,"CN1C[C@H](NC(=O)c2cccc(C=O)c2)C[C@H]1COc1nc(N2C[C@H]3CC[C@@H](C2)N3)c2cnc(-c3cccc4cccc(Cl)c34)c(F)c2n1 [Example 354, N-((3R,5S)-5-(((4-((1R,5S)-3,8-diazabicyclo[3.2.1]octan-3-yl)-7-(8-chloronaphthalen-1-yl)-8-fluoropyrido[4,3-d]pyrimidin-2-yl)oxy)methyl)-1-methylpyrrolidin-3-yl)-3-formylbenzamide]",368
12,"Cc1cc2[nH]ccc2c(-c2ncc3c(N4C[C@H]5CC[C@@H](C4)N5)nc(OCC45CCCN4CCC5)nc3c2F)c1C [Example 250, 4-((1R,5S)-3,8-diazabicyclo[3.2.1]octan-3-yl)-7-(5,6-dimethyl-1H-indol-4-yl)-8-fluoro-2-((hexahydro-1H-pyrrolizin-7a-yl)methoxy)pyrido[4,3-d]pyrimidine]",28.2
13,"O=C(NCCOc1nc(N2C[C@H]3CC[C@@H](C2)N3)c2cnc(-c3cc(O)cc4ccccc34)c(F)c2n1)c1ccc(S(=O)(=O)F)cc1 [Example 212, 4-((2-((4-((1R,5S)-3,8-diazabicyclo[3.2.1]octan-3-yl)-8-fluoro-7-(3-hydroxynaphthalen-1-yl)pyrido[^4,3-d]pyrimidin-2-yl)oxy)ethyl)carbamoyl)benzenesulfonyl fluoride bis(2,2,2-trifluoroacetate)]",1220
14,"CC#Cc1cccc2cccc(-c3ncc4c(N5C[C@H]6CC[C@@H](C5)N6)nc(OCC56CCCN5CCC6)nc4c3F)c12 [Example 195, 4-((1R,5S)-3,8-diazabicyclo[3.2.1]octan-3-yl)-8-fluoro-7-(8-(prop-1-yn-1-yl)naphthalen-1-yl)-2-((tetrahydro-1H-pyrrolizin-7a(5H)-yl)methoxy)pyrido[4,3-d]pyrimidine]",20.7
15,"CN1CCC[C@H]1COc1nc(N2CC3CCC(C2)N3)c2cnc(-c3c(Cl)c(O)cc4ccccc34)c(F)c2n1 [Example 337, 4-(4-(3,8-diazabicyclo[3.2.1]octan-3-yl)-8-fluoro-2-(((S)-1-methylpyrrolidin-2-yl)methoxy)pyrido[4,3-d]pyrimidin-7-yl)-3-chloronaphthalen-2-ol]",2.2
16,"C[C@H](N)COc1nc(N2CC3CCC(C2)N3)c2cnc(-c3cccc4cccc(Cl)c34)c(F)c2n1 [Example 374, (S)-1-((4-((1R,5S)-3,8-diazabicyclo[3.2.1]octan-3-yl)-7-(8-chloronaphthalen-1-yl)-8-fluoropyrido[4,3-d]pyrimidin-2-yl)oxy)propan-2-amine bis(2,2,2-trifluoroacetate)]",348
17,"C#Cc1cccc2cccc(-c3ncc4c(N5C[C@H]6CC[C@@H](C5)N6)nc(OC[C@@H]5CCCN5C)nc4c3F)c12 [Example 206, 4-((1R,5S)-3,8-diazabicyclo[3.2.1]octan-3-yl)-7-(8-ethynylnaphthalen-1-yl)-8-fluoro-2-(((S)-1-methylpyrrolidin-2-yl)methoxy)pyrido[4,3-d]pyrimidine]",5.1
18,"Fc1c(-c2cnccc2C(F)(F)F)ncc2c(N3CC4CCC(C3)N4)nc(OC[C@@]34CCCN3C[C@H](F)C4)nc12 (stereo in doubt) [Example 415, 4-((1R,5S)-3,8-diazabicyclo[3.2.1]octan-3-yl)-8-fluoro-2-((2-fluorotetrahydro-1H-pyrrolizin-7a(5H)-yl)methoxy)-7-(4-(trifluoromethyl)pyridin-3-yl)pyrido[4,3-d]pyrimidine]",2580
19,"NCC#Cc1cccc2cccc(-c3ncc4c(N5C[C@H]6CC[C@@H](C5)N6)nc(OCC56CCCN5CCC6)nc4c3F)c12 [Example 241, 3-(8-(4-((1R,5S)-3,8-diazabicyclo[3.2.1]octan-3-yl)-8-fluoro-2-((tetrahydro-1H-pyrrolizin-7a(5H)-yl)methoxy)pyrido[4,3-d]pyrimidin-7-yl)naphthalen-1-yl)prop-2-yn-1-amine]",79.2
20,"Fc1c(-c2cccc3cccc(C(F)(F)F)c23)ncc2c(N3C[C@H]4CC[C@@H](C3)N4)nc(OC[C@@]34CCCN3C[C@H](F)C4)nc12 [Example 419, 4-((1R,5S)-3,8-diazabicyclo[3.2.1]octan-3-yl)-8-fluoro-2-(((2R,7aS)-2-fluorotetrahydro-1H-pyrrolizin-7a(5H)-yl)methoxy)-7-(8-(trifluoromethyl)naphthalen-1-yl)pyrido[4,3-d]pyrimidine]",50.9
21,"Oc1cc(-c2ncc3c(N4C[C@H]5CC[C@@H](C4)N5)nc(OCC45CCCN4CCC5)nc3c2F)c2c(Cl)cccc2c1 [Example 36, 4-(4-((1R,5S)-3,8-diazabicyclo[3.2.1]octan-3-yl)-8-fluoro-2-((tetrahydro-1H-pyrrolizin-7a(5H)-yl)methoxy)pyrido[4,3-d]pyrimidin-7-yl)-5-chloronaphthalen-2-ol]",0.4
22,"Fc1c(-c2cccc3cccc(Cl)c23)ncc2c(N3C[C@H]4CC[C@@H](C3)N4)nc(OC[C@@H]3CCCO3)nc12 [Example 136, 4-((1R,5S)-3,8-diazabicyclo[3.2.1]octan-3-yl)-7-(8-chloronaphthalen-1-yl)-8-fluoro-2-(((S)-tetrahydrofuran-2-yl)methoxy)pyrido[4,3-d]pyrimidine]",5150
23,"COc1cccc2cccc(-c3ncc4c(N5C[C@H]6CC[C@@H](C5)N6)nc(OCC56CCCN5CCC6)nc4c3F)c12 [Example 236, 4-((1R,5S)-3,8-diazabicyclo[3.2.1]octan-3-yl)-8-fluoro-2-((hexahydro-1H-pyrrolizin-7a-yl)methoxy)-7-(8-methoxynaphthalen-1-yl)pyrido[4,3-d]pyrimidine]",25
24,"CCc1c(Cl)cccc1-c1ncc2c(N3C[C@H]4CC[C@@H](C3)N4)nc(OCC34CCCN3CCC4)nc2c1F [Example 312, 4-((1R,5S)-3,8-diazabicyclo[3.2.1]octan-3-yl)-7-(3-chloro-2-ethylphenyl)-8-fluoro-2-((hexahydro-1H-pyrrolizin-7a-yl)methoxy)pyrido[4,3-d]pyrimidine]",9
